Broadly, the IC50 is the point on the concentration scale where inhibition reaches its midpoint. Lower therefore signals greater potency in that assay.

For 23 compounds, IC50 results are on record in patent US12258354B2, “AhR modulators” (IDEAYA BIOSCIENCES, INC., priority 2018, dated 2025).

For this assay, the target named is T1, hAhR (Homo sapiens, UniProt P35869).
T1 construct: Stably integrated DRE-luciferase cell lines were generated by transducing the both cell lines with Cignal XRE luciferase reporter; endogenous in cells; host or cells: HEPG2 DRE-Luc cells (only the XRE luciferase reporter was transduced)
T1 sequence (P35869 11-848): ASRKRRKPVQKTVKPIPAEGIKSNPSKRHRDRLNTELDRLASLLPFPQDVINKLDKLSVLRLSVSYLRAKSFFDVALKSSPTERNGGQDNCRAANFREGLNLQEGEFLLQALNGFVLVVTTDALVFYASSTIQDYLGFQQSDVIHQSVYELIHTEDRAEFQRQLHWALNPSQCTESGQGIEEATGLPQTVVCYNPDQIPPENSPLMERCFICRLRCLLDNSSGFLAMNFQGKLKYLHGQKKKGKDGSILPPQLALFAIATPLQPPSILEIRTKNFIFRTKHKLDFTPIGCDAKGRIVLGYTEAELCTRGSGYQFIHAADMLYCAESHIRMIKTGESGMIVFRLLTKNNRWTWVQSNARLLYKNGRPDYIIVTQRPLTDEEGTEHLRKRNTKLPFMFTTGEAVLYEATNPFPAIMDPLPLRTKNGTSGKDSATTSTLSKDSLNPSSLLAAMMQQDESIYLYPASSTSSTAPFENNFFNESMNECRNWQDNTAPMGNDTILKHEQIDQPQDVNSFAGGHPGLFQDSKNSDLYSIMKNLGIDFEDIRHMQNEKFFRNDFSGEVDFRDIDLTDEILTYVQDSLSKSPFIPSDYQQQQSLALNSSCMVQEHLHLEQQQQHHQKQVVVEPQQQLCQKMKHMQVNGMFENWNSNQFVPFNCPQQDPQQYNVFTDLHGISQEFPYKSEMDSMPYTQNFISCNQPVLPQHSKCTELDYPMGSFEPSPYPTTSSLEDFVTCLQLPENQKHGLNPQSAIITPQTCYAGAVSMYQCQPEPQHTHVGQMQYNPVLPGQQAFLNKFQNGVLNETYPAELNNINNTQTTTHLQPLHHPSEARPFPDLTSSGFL
Kind of assay: DRE-luciferase transcriptional reporter assay in HEPG2 DRE-Luc cells, TCDD-induced (antagonist mode). In kind it is cell-based. The note with it: relative IC50, 3 nM TCDD, 24-hour incubation, firefly luciferase readout. How it is done:
HEPG2 and HEPA1C1C7 cells were maintained in MEM and αMEM without nucleosides supplemented with 10% heat inactivated FBS respectively. Stably integrated DRE-luciferase cell lines were generated by transducing the both cell lines with Cignal XRE luciferase reporter (Qiagen) lentiviral particles according to the manufacturer protocol. For both cell lines stably integrated reporter cell lines were selected for the presence of 2 μg/mL puromycin. Following selection of stably integrated cell line pools, clonal cell lines were isolated by limiting dilution in 96-well plates. Transcriptional assays were performed by seeding 100 μL of cells at a density of 250,000 or 100,000 cells/mL, for HEPG2 and HEPA1C1C7 DRE-Luc cells respectively, into 96-well cell culture plates in OptiMEM supplemented with 0.5% heat inactivated FBS and allowed to attach overnight. For modulator assays, the compounds were added in a semi-log dose response using a D300e Digital Dispenser (Tecan) followed normalization with vehicle (DMSO). Immediately following compound addition 10 μL of 2,3,7,8-Tetrachlorodibenzo-p-dioxin (TCDD) was added to the cells to a final concentration of 3 nM or 0.3 nM for the HEPG2 and HEPA1C1C7 DRE-Luc cells respectively. Following 24-hour incubation, the medium was removed and the cells were lysed in 25 μL of Reporter Lysis Buffer (Promega). Firefly luciferase activity was measured immediately following the addition of 50 μL Luciferase Assay Reagent (Promega). The percent maximal activity for each point was determined using the following equation: (RLUsample−RLUvehicle−TCDD)/(RLUvehicle+TCDD RLUvehicle−TCDD)*100. The relative IC50, defined as the compound concentration required to reduce the TCDD induced response between the top and bottom plateau of each individual dose response curve by half, for each compound was determined using Prism 7 (GraphPad Software).
In general terms: In a reporter assay the amount or activity of a reporter protein is the signal.
Take `Cc1cc(N2CCn3ncc(C)c3C2=O)c(F)cc1-c1ccc2nc(C(F)(F)F)cc(C)c2n1` [compound 022, 5-(2-fluoro-5-methyl-4-(8-methyl-6-(trifluoromethyl)-1,5-naphthyridin-2-yl)phenyl)-3-methyl-6,7-dihydropyrazolo[1,5-a]pyrazin-4 (5H)-one]: the IC50 was < 200 nM.

Compound `Cc1cc(N2CCn3ncc(C)c3C2=O)c(C)cc1-c1ccc2cc(C(F)(F)F)ccc2n1` [compound 023, 5-(2,5-dimethyl-4-(6-(trifluoromethyl)quinolin-2-yl)phenyl)-3-methyl-6,7-dihydropyrazolo[1,5-a]pyrazin-4 (5H)-one] gave an IC50 of 1000 to 10000 nM.

As to `Cc1cc(N2CCn3ncc(C)c3C2=O)c(F)cc1-c1ccc2cc(C(F)(F)F)ccc2n1` [compound 024, 5-(2-fluoro-5-methyl-4-(6-(trifluoromethyl)quinolin-2-yl)phenyl)-3-methyl-6,7-dihydropyrazolo[1,5-a]pyrazin-4 (5H)-one], the concentration for half-maximal inhibition (IC50) was < 200 nM.

`Cc1cc(N2CCn3ncc(C)c3C2=O)c(F)cc1-c1ncc2cc(C(F)(F)F)ccc2n1` [compound 025, 5-(2-fluoro-5-methyl-4-(6-(trifluoromethyl)quinazolin-2-yl)phenyl)-3-methyl-6,7-dihydropyrazolo[1,5-a]pyrazin-4 (5H)-one]: the IC50 is < 200 nM.

As for `Cc1cc(N2CCn3ncc(C)c3C2=O)c(F)cc1-c1ncc2cc(C(F)(F)F)cc(C)c2n1` [compound 026, 5-(2-fluoro-5-methyl-4-(8-methyl-6-(trifluoromethyl)quinazolin-2-yl)phenyl)-3-methyl-6,7-dihydropyrazolo[1,5-a]pyrazin-4 (5H)-one], the IC50 was < 200 nM.

`Cc1cc(-c2ccc3nc(C(F)(F)F)ccc3n2)ccc1N1CCc2cnn(C)c2C1=O` [compound 027, 1-methyl-6-(2-methyl-4-(6-(trifluoromethyl)-1,5-naphthyridin-2-yl)phenyl)-1,4,5,6-tetrahydro-7H-pyrazolo[3,4-c]pyridin-7-one]: the concentration for half-maximal inhibition (IC50) was < 200 nM.

For `Cc1cc(-c2ccc3nc(C(F)(F)F)cc(C)c3n2)ccc1N1CCc2cnn(C)c2C1=O` [compound 028, 1-methyl-6-(2-methyl-4-(8-methyl-6-(trifluoromethyl)-1,5-naphthyridin-2-yl)phenyl)-1,4,5,6-tetrahydro-7H-pyrazolo[3,4-c]pyridin-7-one], the IC50 was < 200 nM.

On to `Cc1cc(-c2ncc3cc(C(F)(F)F)ccc3n2)ccc1N1CCOc2cnn(C)c2C1=O` [compound 029, 1-methyl-7-(2-methyl-4-(6-(trifluoromethyl)quinazolin-2-yl)phenyl)-6,7-dihydro-1H-pyrazolo[3,4-f][1,4]oxazepin-8 (5H)-one], for which the IC50 was < 200 nM.

Turning to `Cc1cc(-c2ccc3nc(C(F)(F)F)ccc3n2)ccc1N1CCOc2cnn(C)c2C1=O` [compound 030, 1-methyl-7-(2-methyl-4-(6-(trifluoromethyl)-1,5-naphthyridin-2-yl)phenyl)-6,7-dihydro-1H-pyrazolo[3,4-f][1,4]oxazepin-8 (5H)-one], the IC50 is < 200 nM.

For the compound `Cc1cc(-c2ccc3nc(C(F)(F)F)cc(C)c3n2)ccc1N1CCOc2cnn(C)c2C1=O` [compound 031, 1-methyl-7-(2-methyl-4-(8-methyl-6-(trifluoromethyl)-1,5-naphthyridin-2-yl)phenyl)-6,7-dihydro-1H-pyrazolo[3,4-f][1,4]oxazepin-8 (5H)-one], the concentration for half-maximal inhibition (IC50) is < 200 nM.

In turn, `Cc1cc(N2CCOc3cnn(C)c3C2=O)c(C)cc1-c1ccc2nc(C(F)(F)F)ccc2n1` [compound 032, 7-(2,5-dimethyl-4-(6-(trifluoromethyl)-1,5-naphthyridin-2-yl)phenyl)-1-methyl-6,7-dihydro-1H-pyrazolo[3,4-f][1,4]oxazepin-8 (5H)-one] showed an IC50 of 1000 to 10000 nM.

On to `Cc1cc(-c2ncc3cc(C(F)(F)F)ccc3n2)ccc1N1CCOc2cn[nH]c2C1=O` [compound 033], for which the half-inhibitory concentration (IC50) is < 200 nM.

As to `Cc1cc(-c2ncc3cc(C(F)(F)F)ccc3n2)ccc1N1CCOc2cn(CC#N)nc2C1=O` [compound 035, 2-(7-(2-methyl-4-(6-(trifluoromethyl)quinazolin-2-yl)phenyl)-8-oxo-5,6,7,8-tetrahydro-2H-pyrazolo[3,4-f][1,4]oxazepin-2-yl)acetonitrile], the IC50 is < 200 nM.

Turning to `Cc1cc(-c2ncc3cc(C(F)(F)F)ccc3n2)ccc1N1CCOc2cnn(CC#N)c2C1=O` [compound 036, 2-(7-(2-methyl-4-(6-(trifluoromethyl)quinazolin-2-yl)phenyl)-8-oxo-5,6,7,8-tetrahydro-1H-pyrazolo[3,4-f][1,4]oxazepin-1-yl)acetonitrile], the IC50 was < 200 nM.

Turning to `Cc1cc(-c2ncc3cc(C(F)(F)F)ccc3n2)ccc1N1CCOc2cn(CCO)nc2C1=O` [compound 037, 2-(2-hydroxyethyl)-7-(2-methyl-4-(6-(trifluoromethyl)quinazolin-2-yl)phenyl)-6,7-dihydro-2H-pyrazolo[3,4-f][1,4]oxazepin-8 (5H)-one], the IC50 was < 200 nM.

As to `Cc1cc(-c2ncc3nc(C(F)(F)F)ccc3n2)ccc1N1CCOc2cn[nH]c2C1=O` [compound 038, 7-(2-methyl-4-(6-(trifluoromethyl)pyrido[3,2-d]pyrimidin-2-yl)phenyl)-6,7-dihydro-1H-pyrazolo[3,4-f][1,4]oxazepin-8 (5H)-one], the IC50 was < 200 nM.

`Cc1cc(-c2ncc3nc(C(F)(F)F)ccc3n2)ccc1N1CCOc2nn[nH]c2C1=O` [compound 040, 7-[2-methyl-4-[6-(trifluoromethyl)pyrido[3,2-d]pyrimidin-2-yl]phenyl]-1H,5H,6H,7H,8H-[1,2,3]triazolo[4,5-f][1,4]oxazepin-8-one] showed an IC50 of 1000 to 10000 nM.

`Cc1cc(-c2ncc3nc(C(F)(F)F)ccc3n2)ccc1N1CCOc2nn(C)nc2C1=O` [compound 042, 2-methyl-7-(2-methyl-4-(6-(trifluoromethyl)pyrido[3,2-d]pyrimidin-2-yl)phenyl)-6,7-dihydro-2H-[1,2,3]triazolo[4,5-f][1,4]oxazepin-8 (5H)-one]: the IC50 lay in the range of 200 to 500 nM.

On to `Cc1cc(-c2ncc3cc(C(F)(F)F)ccc3n2)ccc1N1CCOc2nn(C)nc2C1=O` [compound 043, 2-methyl-7-(2-methyl-4-(6-(trifluoromethyl)quinazolin-2-yl)phenyl)-6,7-dihydro-2H-[1,2,3]triazolo[4,5-f][1,4]oxazepin-8 (5H)-one], for which the IC50 was 1000 to 10000 nM.

Take `Cc1cc(-c2ncc3cc(C(F)(F)F)ccc3n2)ccc1N1C(=O)c2[nH]ncc2OCC1C` (centres unmarked) [compound 044, 6-methyl-7-(2-methyl-4-(6-(trifluoromethyl)quinazolin-2-yl)phenyl)-6,7-dihydro-1H-pyrazolo[3,4-f][1,4]oxazepin-8 (5H)-one]: the IC50 is < 200 nM.

Regarding `Cc1cc(-c2ccc3nc(C(F)(F)F)ccc3n2)ccc1N1C(=O)c2[nH]ncc2OCC1C` (centres unmarked) [compound 045, 6-methyl-7-(2-methyl-4-(6-(trifluoromethyl)-1,5-naphthyridin-2-yl)phenyl)-6,7-dihydro-1H-pyrazolo[3,4-f][1,4]oxazepin-8 (5H)-one], the IC50 was < 200 nM.

In the case of `Cc1cc(-c2ncc3nc(C(F)(F)F)ccc3n2)ccc1N1C(=O)c2[nH]ncc2OCC1C` (centres unmarked) [compound 046, 6-methyl-7-(2-methyl-4-(6-(trifluoromethyl)pyrido[3,2-d]pyrimidin-2-yl)phenyl)-6,7-dihydro-1H-pyrazolo[3,4-f][1,4]oxazepin-8 (5H)-one], the IC50 is < 200 nM.

For `Cc1cc(-c2ncc3nc(C(F)(F)F)ccc3n2)ccc1N1CCOc2cn(C)nc2C1=O` [compound 047, 2-methyl-7-(2-methyl-4-(6-(trifluoromethyl)pyrido[3,2-d]pyrimidin-2-yl)phenyl)-6,7-dihydro-2H-pyrazolo[3,4-f][1,4]oxazepin-8 (5H)-one], the IC50 is < 200 nM.
